# Measured values: the supplement of paper PMC3974653
# Counter-ions that a name gives are not always drawn.
# Test system: MTT (mouse pheochromocytoma)
# Assay: IC50 of cell viability (ATP content)
# Settings: (24 or 48 h)
# Outline: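 After overnight culture at 37°C, 5% CO2 in white 1536-well plates, MTT mouse pheochromocytoma cells were given 23 nl of library compound in DMSO by pintool across 8 concentrations, spanning final 0.5 nM to 46 µM. Following 24 or 48 hrs, CellTiter-Glo luminescence was read after 15 minutes and normalised against positive-control (100%) and DMSO (0%) wells. A four-parameter logistic model provided the IC50.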
row,SMILES,IC50 of cell viability [µM]
1,NCCCC(N)CC(=O)NC1CNC(=O)C(C2CC(O)NC(N)=N2)NC(=O)/C(=C/NC(N)=O)NC(=O)C(CO)NC(=O)C(CO)NC1=O (stereo unspecified) [VIOMYCIN SULFATE],> 46
2,CC1OC1P(=O)([O-])[O-].[Ca+2] (stereo unspecified) [FOSFOMYCIN],> 46
3,CCCC(=O)O[C@@]1([C@@H](C)C[C@H]2[C@@H]3CCC\4=C\C(=O)\C=C/[C@@]4(C)[C@@]3(F)[C@H](O)C[C@]12C)C(=O)COC(=O)CC [Antebate],> 46
4,NC(=O)c1ncn(C2OC(CO)C(O)C2O)n1 (stereo unspecified) [RIBAVIRIN],> 46
5,CC(C)c1nc(CN(C)C(=O)N[C@H](C(=O)N[C@@H](Cc2ccccc2)C[C@H](O)[C@H](Cc2ccccc2)NC(=O)OCc2cncs2)C(C)C)cs1 [Ritonavir],> 46
6,O=C([O-])c1ccc(NC(=O)[C@H](Cc2ccc(O)cc2)NC(=O)c2ccccc2)cc1 [Bentiromide],> 46
7,C[N+](C)(C)CC[N+]1(C)Cc2c(Cl)c(Cl)c(Cl)c(Cl)c2C1 [CHLORISONDAMINE],> 46
8,CC1=C(C(=O)O)N2C(=O)[C@@H](NC(=O)[C@H](N)C3=CCC=CC3)[C@H]2SC1 [Cephradine],> 46
9,N#CC1(N2CCCCC2)CCCCC1 [1-PIPERIDINOCYCLOHEXANECARBONITRILE],> 46
10,CC1CC(=O)N/N=C1/C2=CC=C(NCC(C)(C)NCC(O)COC3=C(C=CC(=C3)Cl)C#N)C=C2 (stereo unspecified) [Oberadilol],> 46
11,COc1cc(Cc2cnc(N)nc2N)cc(OC)c1OC [Trimethoprim],> 46
12,CNC1C(OC2C(O[C@@H]3C(O)C(O)[C@@H](NC(=N)N)C(O)C3NC(=N)N)OC(C)[C@@]2(O)CO)OC(CO)C(O)C1O.O=[S+]([O-])(O)O (stereo partly specified) [DIHYDROSTREPTOMYCIN SULFATE],> 46
13,CC1(C)Oc2ccc(C#N)cc2[C@@H](N2CCCC2=O)[C@@H]1O [Levcromakalim],> 46
14,Cc1c(Cl)c(=O)oc2cc(OP(=O)(OCCCl)OCCCl)ccc12 [Haloxon],> 46
15,CCC[C@@H](N[C@@H](C)C(=O)N1[C@@H](C(=O)O)C[C@@H]2CCCC[C@@H]21)C(=O)OCC [Perindopril],> 46
16,CCOCCn1c(N2CCCN(C)CC2)nc2ccccc21 [EMEDASTINE DIFUMARATE],> 46
17,CC(=O)CCCCn1c(=O)c2c(ncn2C)n(C)c1=O [Pentoxifylline],> 46
18,COc1ccc(C(=O)N2CCCC2=O)cc1 [ANIRACETAM],> 46
19,OCc1ccccc1O [SALICYL ALCOHOL],> 46
20,CCCCNC(=N)NC(=N)N [BUFORMIN HYDROCHLORIDE],> 46
21,CCC(C)CCCCC(=O)NC(CCN)C(=O)NC(C(=O)NC(CCN)C(=O)NC1CCNC(=O)C(C(C)O)NC(=O)C(CCN)NC(=O)C(CCN)NC(=O)C(CC(C)C)NC(=O)C(Cc2ccccc2)NC(=O)C(CCN)NC1=O)C(C)O.O=[S+]([O-])(O)O (stereo unspecified) [POLYMYXIN B SULFATE],> 46
22,O=C1NC(=O)[C@@]2(CCOc3ccc(F)cc32)N1 [Sorbinil],> 46
23,Cl.N[C@@H](Cc1c[nH]cn1)C(=O)O [L-Histidine hydrochloride],> 46
24,NCC[S+](=O)([O-])O [TAURINE],> 46

row,SMILES,IC50 of cell viability [µM]
1,ClC1=CC=C2[N]3C=NN=C3C\N=C(\C4=CC=CC=C4)C2=C1 [ESTAZOLAM],> 46
2,CCN(CC)CCNC(=O)c1c(C)[nH]c(/C=C2\C(=O)Nc3ccc(F)cc32)c1C [Sunitinib malate],> 46
3,CN1C(=O)CN=C(c2ccccc2)c2cc(Cl)ccc21 [Diazepam],> 46
4,ClC1=C(Cl)C2(Cl)C(CBr)CC1(Cl)C2(Cl)Cl (stereo unspecified),> 46
5,C[C@@H]1CC2[C@@H]3C[C@H](F)C4=CC(=O)C(Cl)=C[C@]4(C)[C@@]3(F)[C@H](O)C[C@]2(C)[C@@]1(O)C(=O)CO (stereo partly specified) [Halometasona],> 46
6,C[C@H](C1=NC=CC=C1)C/2=C(CCN(C)C)/CC3=CC=CC=C23 [(S)-(+)-Dimethindene maleate],> 46
7,Nc1ccc(O)c(C(=O)O)c1 [Mesalamine],> 46
8,CC(C)(S)[C@@H](N)C(=O)O [PENICILLAMINE],> 46
9,COC1=C(N2CCNC(C)C2)C(=CC3=C1N(\C=C(C(O)=O)/C3=O)C4CC4)F (stereo unspecified) [GATIFLOXACIN],> 46
10,C=CCc1ccc(O)c(OC)c1 [Eugenol],> 46
11,CC(C)Oc1ccc2c(=O)c(-c3ccccc3)coc2c1 [Ipriflavone],> 46
12,C[C@H]1C[C@H]2[C@H]3CC\C4=C\C(=O)\C=C/[C@@]4(C)[C@@]3(Cl)[C@@H](O)C[C@]2(C)[C@]1(OC(=O)C5=CC=CO5)C(=O)CCl [Mometasone furoate],> 46
13,CCc1cccc(N(C)C(=N)Nc2cccc3ccccc23)c1.Cl [CNS-1102],> 46
14,C[C@H](C(=O)O)c1ccc2c(c1)CC(=O)c1ccccc1S2 [Zaltoprofen],> 46
15,CCN1\C=C(\C(O)=O)C(=O)C2=C1N=C(N=C2)N3CCNCC3 [Pipemidic acid],> 46
16,CCN(CC)CCNC(=O)COc1ccc(Cl)cc1 [CLOFEXAMIDUM],> 46
17,CCCCCCCCCC(=O)O [Decanoic acid],> 46
18,C[C@H](CCC(=O)O)[C@H]1CC[C@@H]2[C@H]3[C@@H](C[C@@H](O)[C@]21C)[C@]1(C)CC[C@H](O)C[C@@H]1C[C@@H]3O [Cholic Acid],> 46
19,COc1ccc([C@@H]2CNC(=O)C2)cc1OC1CCCC1 [Rolipram],> 46
20,C[C@]12CC[C@H]3[C@@H](CCC4=CC(=O)CC[C@@H]43)[C@@H]1CC[C@@H]2O [Norandrostenolone],> 46
21,CCCCCCCCCCCCCCCCCC(=O)OC[C@@H](O)[C@H]1OC[C@H](O)[C@H]1O [Sorbitan monostearate],> 46
22,Cc1ccccc1CNc1ncnc2c1ncn2C1OC(CO)C(O)C1O (stereo unspecified) [Metrifudil],> 46
23,CCN1CCCC1CNC(=O)c1cc([S+](=O)([O-])CC)c(N)cc1OC (stereo unspecified) [Amisulpride],> 46
24,COc1ccc(CN2CCNCC2)c(OC)c1OC [Trimetazidine dihydrochloride],> 46

row,SMILES,IC50 of cell viability [µM]
1,COC1=CC2=C(C=C1OC)[C@@]34CCN5CC/6=C/COC7CC(=O)N2C3[C@H]7[C@@H]6C[C@H]45 (stereo partly specified) [BRUCINE],> 46
2,Nc1nc(=O)n([C@@H]2CS[C@H](CO)O2)cc1F [EMTRICITABINE],> 46
3,CC1=CC=C(C=C1)N(C\C2=N\CCN2)C3=CC=CC(=C3)O [PHENTOLAMINE],> 46
4,C=CC[N+]1([C@H]2C[C@H]3[C@@H]4CC[C@H]5C[C@H](OC(C)=O)[C@@H](N6CCCCC6)C[C@]5(C)[C@H]4CC[C@]3(C)[C@H]2OC(=O)CC)CCCCC1 [RAPACURONIUM BROMIDE],> 46
5,CC1=NN=C2C\N=C(C3=CC=CC=C3Cl)/C4=C(SC(=C4)CCC(=O)N5CCOCC5)[N]12 [Apafant],> 46
6,CC(C)CCC(=O)OC1CCC2C3CCC4=CC(=O)CC[C@]4(C)C3CC[C@]12C (stereo partly specified) [TESTOSTERONE ISOCAPROATE],> 46
7,COc1ccccc1O [2-Methoxyphenol],> 46
8,Cl\C1=C(/Cl)C2(Cl)C3C4CC(C5OC45)C3C1(Cl)C2(Cl)Cl (stereo unspecified) [ENDRIN],> 46
9,CCCCCCC(=O)CCCCCC/C=C/C[C@@H](O)[C@H](O)[C@@](N)(CO)C(=O)O [Myriocin from Mycelia sterilia],> 46
10,Nc1ccc(O)c([N+](=O)[O-])c1 [4-Amino-2-nitrophenol],> 46
11,N=C(N)N/N=C/c1c(Cl)cccc1Cl [GUANABENZ],> 46
12,Clc1cccc(Cl)c1N=C1NCCN1 [CLONIDINE],> 46
13,O=[N+]([O-])c1nccn1CO[C@@H](CO)[C@H](O)CO [DORANIDAZOLE],> 46
14,CC(C)CCC[C@@H](C)[C@H]1CC[C@H]2[C@@H]3CC[C@@H]4C[C@H](O)CC[C@]4(C)[C@H]3CC[C@]12C [EPIDIHYDROCHOLESTERIN],> 46
15,N[S+](=O)([O-])c1cc2c(cc1Cl)N[C@H](Cc1ccccc1)N[S+]2(=O)[O-] [Benzylhydrochlorothiazide],> 46
16,CC(C)(C)c1ccc(C(O)CCCN2CCC(C(O)(c3ccccc3)c3ccccc3)CC2)cc1 (stereo unspecified) [Terfenadine],> 46
17,[Na+].NC(=O)C1=CC=[N+](C\C2=C(\[N@]3[C@@H](SC2)[C@H](NC(=O)[C@H](C4=CC=CC=C4)[S]([O-])(=O)=O)C3=O)C([O-])=O)C=C1 [Cefsulodin sodium salt],> 46
18,O=C(NO)c1ccccc1 [Benzhydroxamic acid],> 46
19,C=C(c1ccc(C(=O)O)cc1)c1cc2c(cc1C)C(C)(C)CCC2(C)C [BEXAROTENE],> 46
20,CCC[C@@H]1O[C@@H]2C[C@@H]3[C@@H]4CC\C5=C\C(=O)\C=C/[C@@]5(C)[C@H]4[C@H](O)C[C@@]3(C)[C@]2(O1)C(=O)CO [Budesonide],> 46
21,CCOC1=C2O[C@H]3[C@@H](O)\C=C/[C@H]4[C@H]5CC(=C2[C@@]34CCN5C)C=C1 [ETHYLMORPHINE HYDROCHLORIDE],> 46
22,C[C@@H](C(=O)O)c1ccc(C(=O)c2cccs2)cc1 [Suprofen],> 46
23,Cc1cccc(N(C)C(=S)Oc2ccc3c(c2)CCC3)c1 [TOLINDATE],> 46
